In patent publication US5158958A, “Imidazo[4,5-b]quinolinyl oxy alkyl sulfonyl piperidine derivatives” (Bristol-Myers Squibb Company, priority 1992, dated 1992):
Where a name gives a salt, the structure may show the parent alone.

Experiment: Aqueous solubility
Assay type: physicochemical
Conditions: water, compounds prepared as dihydrochloride salts

Row | Structure (SMILES) | solubility
1 | O=S(=O)(CCCOc1ccc2[nH]c3nc(O)nc-3cc2c1)C1CCN(Cc2ccccc2)CC1 [Cmpd 17b, 4-[[3-[2,3-Dihydro-2-oxy-1H-imidazo[4,5-b]quinolin-7-yloxy]propyl]sulfonyl]-1-(phenylmethyl)piperidine dihydrochloride] | > 10000 µg/mL
2 | O=S(=O)(CCCCOc1ccc2[nH]c3nc(O)nc-3cc2c1)C1CCN(CC2CCCCC2)CC1 [Cmpd 18d, 1-(Cyclohexylmethyl)-4-[[3-[2,3-Dihydro-2-oxo-1H-imidaxo [4,5-b]quinolin-7-yloxy]butylsulfonylpiperidinedihydrochloride] | ~2000 µg/mL
3 | O=S(=O)(CCCOc1ccc2[nH]c3nc(O)nc-3cc2c1)C1CCN(Cc2cccc(C(F)(F)F)c2)CC1 [Cmpd 17i, 4-[3-[2,3-Dihydro-2-oxo1H-imidazo[4,5-b]quinolin-7-yl-oxy]propyl]sulfony]1-[(3-trifluoromethylhenvlmethyphenylmethyl]piperidine dihydrochloride] | < 5000 µg/mL
4 | O=S(=O)(CCCOc1ccc2[nH]c3nc(O)nc-3cc2c1)C1CCN(CC2CCCCC2)CC1 [Cmpd 17d, 4-[[3-[2,3-Dihydro-2-oxo-1H-imidazo[4,5-b]quinolin-7-yl-oxy]propyl]sulfonyl]-(cyclohexylmethyl)piperidine dihydrochloride] | < 10000 µg/mL
5 | O=S(=O)(CCCCOc1ccc2[nH]c3nc(O)nc-3cc2c1)C1CCN(Cc2ccc(F)cc2)CC1 [l8c, dihydrochloride] | ~2000 µg/mL
6 | O=S(=O)(CCCOc1ccc2[nH]c3nc(O)nc-3cc2c1)C1CCNCC1 [Cmpd 17a, 4-[[3-[[(2-,3-Dihydro-2-oxo-1H-imidazo[4,5-b]guinolin7-yl)oxy]propylsulfonyl]piperidinedihydrochloride] | > 10000 µg/mL
7 | O=S(=O)(CCCCOc1ccc2[nH]c3nc(O)nc-3cc2c1)C1CCN(Cc2ccccc2)CC1 [Cmpd 18b, 4[[3-[2,3-Dihydro-2-oxo-1H-imidazo[4,5-b]quinolin-7-yloxyl]butylsulfonyl]-1-(phenylmethyl)piperidinedihydrochloride] | ~5000 µg/mL
8 | O=S(=O)(CCCOc1ccc2[nH]c3nc(O)nc-3cc2c1)C1CCN(CC2CCCCO2)CC1 (stereo not drawn) [Cmpd 17k, 4[[2,3-Dihydro-2-oxo-1H-imidazo[4,5-b]quinolin-7-yl-pxy]propyl]sulfonyl]-1-[(tetrahydro-2H-pyran-2-yl)piperidine dihydrochloride] | > 10000 µg/mL
9 | O=S(=O)(CCCCOc1ccc2[nH]c3nc(O)nc-3cc2c1)C1CCNCC1 [Cmpd 18a, 4-[[2,3-Dihydro-2-oxo-1H-imidazo[4,5-b]quinolin-7-yloxy]butyl]sulfonyl]piperidine dihydrochloride] | > 10000 µg/mL

More lines, now with the values ahead:

Row | solubility | Structure (SMILES)
10 | > 10000 µg/mL | O=S(=O)(CCCOc1ccc2[nH]c3nc(O)nc-3cc2c1)C1CCN(Cc2ccc(F)cc2)CC1 [Cmpd 17c, 4-[[3-[2,3-Dihydro-2-oxo1H-imidazo[4,5-b]quinolin-7piperidinedihydrochloride]
11 | < 10000 µg/mL | CCC(CC)CN1CCC(S(=O)(=O)CCCOc2ccc3nc4[nH]c(=O)[nH]c4cc3c2)CC1.Cl.Cl [Cmpd 17e, 4-[[3-[2,3-Dihydro-2-oxo-1H-imidazo[4,5-b]quinolin-7yl-oxy]propyl]sulfonyl]1-(2-ethylbut-1yl)piperidine dihydrochloride]
12 | < 5000 µg/mL | O=S(=O)(CCCOc1ccc2[nH]c3nc(O)nc-3cc2c1)C1CCN(CCC2CCCCC2)CC1 [Cmpd 17g, 1-(2-Cyclohexylethyl)-4-[[(3-[(2,3-dihydro-2-oxo-1H-imidazo[4,5-b]quinolin-7-yloxy]propyl]sulfonyl]piperidinedihydrochloride]
13 | ~5000 µg/mL | CCC(CC)CN1CCC(S(=O)(=O)CCCCOc2ccc3[nH]c4nc(O)nc-4cc3c2)CC1 [l8e, 4[[3-[2,3-Dihydro-2-oxo-1H-imidazo[4.5-b]qouinolin-7-yloxy]butylsulfonyl]-1-(2-ethylbut-1-yl)piperidinedihydrochloride]
14 | > 10000 µg/mL | CC(C)CN1CCC(S(=O)(=O)CCCOc2ccc3[nH]c4nc(O)nc-4cc3c2)CC1 [Cmpd 17f, 4[[3-[2,3-Dihydro-2-oxo-1H-imidazo[4.5-b]quinolin-7yloxy]propyl]sulfonyll-1-(2-methylpropyl)piperidinedihydrochloride]
15 | < 5000 µg/mL | O=S(=O)(CCCOc1ccc2[nH]c3nc(O)nc-3cc2c1)C1CCN(CCc2ccccc2)CC1 [Cmpd 17h, 4-[[3-[2,3-Dihydro-2-oxo-1H-imidazo[4,5-b]quinolin-7-yl-oxy]propyl]sulfonyl]-b 1-(2-phenylethyl)piperidine dihydrochloride]
